Data: ChEMBL document CHEMBL1201862, “PubChem BioAssay data set” (2004)
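Test compounds were applied to cells in 96-well plates for 48 hours at 5 doses. GI50 marks 50% less growth.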 Activity calls are given as the source filed them. Cut-off read from the data, not from the text of the source: active = GI50 up to about 1.1 µM and inactive = higher.

Legend:
Assay in all cases: inhibition of tumour cell growth, NCI panel, 48 h
[1] = system: SK-MEL-5
[2] = system: SF-268
[3] = system: COLO 205
[4] = system: HCT-15
[5] = system: LOX IMVI
[6] = system: RXF 393
[7] = system: CCRF-CEM
[8] = system: TK-10
[9] = system: SN12C
[10] = system: NCI-H460
[11] = system: K562
[12] = system: MOLT-4
[13] = system: MCF7
[14] = system: KM12
[15] = system: HOP-62
[16] = system: SNB-19
[17] = system: PC-3
[18] = system: M14
[19] = system: SK-MEL-2
[20] = system: SF-539
[21] = system: MDA-MB-435
[22] = system: IGROV-1
[23] = system: UACC-62
[24] = system: OVCAR-5
[25] = system: EKVX
[26] = system: Malme-3M
[27] = system: HOP-92
[28] = system: UACC-257
[29] = system: U-251
[30] = system: MDA-MB-231
[31] = system: SNB-75
[32] = system: ACHN
[33] = system: CAKI-1
[34] = system: HL-60
[35] = system: A549
[36] = system: SK-MEL-28
[37] = system: A498
[38] = system: SW-620
[39] = system: NCI-H226
[40] = system: NCI-H522
[41] = system: OVCAR-8
[42] = system: OVCAR-3
[43] = system: SK-OV-3
[44] = system: DU-145
[45] = system: Hs-578T
[46] = system: 786-0
[47] = system: MDA-N
[48] = system: NCI-H23
[49] = system: HCT-116
[50] = system: BT-549
[51] = system: RPMI-8226
[52] = system: T47D
[53] = system: HT-29
[54] = system: SF-295
[55] = system: OVCAR-4
[56] = system: NCI/ADR-RES
[57] = system: UO-31
[58] = system: HCC 2998

For `COC(=O)C1=C(C)NC2(C)OC(C)(O)C(C(C)=O)C12C(C)=O` (centres undefined), the GI50 [1] was > 100 µM (inactive), the GI50 [2] was 28.1 µM (inactive) and the GI50 [3] was 46.8 µM (inactive). For the same compound, the GI50 [4] was greater than 100 µM, the GI50 [5] was 89.5 µM (inactive) and the GI50 [6] was 57.7 µM (inactive). For the same compound, the GI50 [7] was 31.6 µM (inactive), the GI50 [8] was > 100 µM (inactive) and the GI50 [9] was 47.6 µM (inactive). The GI50 [10] was > 100 µM (inactive), the GI50 [11] was > 100 µM (inactive) and the GI50 [12] was > 100 µM (inactive). The GI50 [13] was > 100 µM (inactive), the GI50 [14] was > 100 µM (inactive) and the GI50 [15] was > 100 µM (inactive). For the same compound, the GI50 [16] was > 100 µM (inactive), the GI50 [17] was 13.9 µM (inactive) and the GI50 [18] was 60.5 µM (inactive). For the same compound, the GI50 [19] was 21.4 µM (inactive), the GI50 [20] was 24.3 µM (inactive) and the GI50 [21] was > 100 µM (inactive). For the same compound, the GI50 [22] was > 100 µM (inactive), the GI50 [23] was > 100 µM (inactive) and the GI50 [24] was 31.5 µM (inactive). For the same compound, the GI50 [25] was > 100 µM (inactive), the GI50 [26] was 23.4 µM (inactive) and the GI50 [27] was 33.2 µM (inactive). For the same compound, the GI50 [28] was > 100 µM (inactive), the GI50 [29] was 43.7 µM (inactive) and the GI50 [30] was 20.7 µM (inactive). The GI50 [31] was 71.8 µM (inactive), the GI50 [32] was 70.6 µM (inactive) and the GI50 [33] was > 100 µM (inactive). For the same compound, the GI50 [34] was > 100 µM (inactive), the GI50 [35] was > 100 µM (inactive) and the GI50 [36] was 38.5 µM (inactive). The GI50 [37] was 60.5 µM (inactive), the GI50 [38] was > 100 µM (inactive) and the GI50 [39] was 16.5 µM (inactive). For the same compound, the GI50 [40] was > 100 µM (inactive), the GI50 [41] was > 100 µM (inactive) and the GI50 [42] was > 100 µM (inactive). For the same compound, the GI50 [43] was 28.5 µM (inactive), the GI50 [44] was > 100 µM (inactive) and the GI50 [45] was 25.4 µM (inactive). For the same compound, the GI50 [46] was > 100 µM (inactive), the GI50 [47] was > 100 µM (inactive) and the GI50 [48] was > 100 µM (inactive). For the same compound, the GI50 [49] was > 100 µM (inactive), the GI50 [50] was 66.5 µM (inactive) and the GI50 [51] was 61.1 µM (inactive). The GI50 [52] was > 100 µM (inactive), the GI50 [53] was 81.3 µM (inactive) and the GI50 [54] was 32.1 µM (inactive). The GI50 [55] was > 100 µM (inactive) and the GI50 [56] was > 100 µM (inactive).

With `CC(=O)Oc1ccc2c3c1[C@@H]1O[C@@H]1c1cccc(c1-3)[C@@H]1O[C@H]21` the GI50 [1] was 1.61 µM (inactive), the GI50 [2] was 2.11 µM (inactive) and the GI50 [3] was 1.99 µM (inactive). The GI50 [4] was 1.66 µM, the GI50 [5] was 0.962 µM (active) and the GI50 [6] was 1.36 µM (inactive). For the same compound, the GI50 [7] was 0.601 µM (active), the GI50 [8] was 2.08 µM (inactive) and the GI50 [9] was 1.6 µM (inactive). For the same compound, the GI50 [57] was 1.52 µM (inactive), the GI50 [13] was 2.55 µM (inactive) and the GI50 [14] was 2.05 µM (inactive). For the same compound, the GI50 [15] was 2.01 µM (inactive), the GI50 [16] was 3.01 µM (inactive) and the GI50 [17] was 2.33 µM (inactive). The GI50 [18] was 1.72 µM (inactive), the GI50 [19] was 2.37 µM (inactive) and the GI50 [21] was 1.14 µM (inactive). For the same compound, the GI50 [23] was 1.87 µM (inactive), the GI50 [24] was 1.86 µM (inactive) and the GI50 [25] was 2.02 µM (inactive). The GI50 [26] was 1.86 µM (inactive), the GI50 [27] was 1.81 µM (inactive) and the GI50 [28] was 2.43 µM (inactive). For the same compound, the GI50 [29] was 2.12 µM (inactive), the GI50 [30] was 2.02 µM (inactive) and the GI50 [31] was 1.63 µM (inactive). The GI50 [32] was 1.84 µM (inactive), the GI50 [33] was 1.59 µM (inactive) and the GI50 [34] was 0.883 µM (active). For the same compound, the GI50 [35] was 2.32 µM (inactive), the GI50 [36] was 1.96 µM (inactive) and the GI50 [58] was 2 µM (inactive). For the same compound, the GI50 [37] was 2.19 µM (inactive), the GI50 [38] was 1.14 µM (inactive) and the GI50 [39] was 18.2 µM (inactive). For the same compound, the GI50 [40] was 1.47 µM (inactive), the GI50 [41] was 1.54 µM (inactive) and the GI50 [42] was 2 µM (inactive). The GI50 [43] was 3.44 µM (inactive), the GI50 [44] was 1.91 µM (inactive) and the GI50 [45] was 2.87 µM (inactive). The GI50 [46] was 1.48 µM (inactive), the GI50 [47] was 1.84 µM (inactive) and the GI50 [48] was 1.63 µM (inactive). For the same compound, the GI50 [49] was 1.66 µM (inactive), the GI50 [50] was 1.87 µM (inactive) and the GI50 [51] was 1.37 µM (inactive). For the same compound, the GI50 [52] was 2.14 µM (inactive), the GI50 [53] was 1.81 µM (inactive) and the GI50 [54] was 1.94 µM (inactive). For the same compound, the GI50 [55] was 2.03 µM (inactive) and the GI50 [56] was 1.82 µM (inactive).
